Test results taken from US5208344A, “Naphthalenepropionic acid derivatives as anti-inflammatory/antiallergic agents” (American Home Products Corporation, priority 1991, dated 1993).
Structures can show the parent of a compound that is named as a salt.

Experiments:
LTD4 = molecular target: T1, LTD4 (Cavia porcellus, UniProt Q2NNR5); assay: LTD4 antagonist activity in isolated guinea pig trachea; format: cell-based; details: 1 × 10^-5 M
T1 construct: isolated guinea pig trachea; from tissue; host or cells: guinea pig tracheal rings
T1 sequence (Q2NNR5 1-340): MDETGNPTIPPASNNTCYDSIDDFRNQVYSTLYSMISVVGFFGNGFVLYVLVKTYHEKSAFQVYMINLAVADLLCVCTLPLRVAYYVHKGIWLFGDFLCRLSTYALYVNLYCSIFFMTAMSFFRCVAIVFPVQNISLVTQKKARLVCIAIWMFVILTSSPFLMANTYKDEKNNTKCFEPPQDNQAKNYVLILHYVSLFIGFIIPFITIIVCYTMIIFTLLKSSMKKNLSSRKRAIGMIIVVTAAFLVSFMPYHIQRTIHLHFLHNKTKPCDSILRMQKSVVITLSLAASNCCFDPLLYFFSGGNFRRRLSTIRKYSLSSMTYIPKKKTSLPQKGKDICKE
Method: The LTD4 antagonist activity of the compounds of the invention is assessed in the in vitro isolated guinea pig trachea assay. Male Hartley guinea pigs (350-400 g) are euthanized by a blow to the head, the neck is opened and the trachea removed. The trachea is maintained in aerated physiological salt solution, cleared of connective tissue and fat and cut into rings approximately 2 mm in width (usually containing two cartilaginous segments per ring). Two pieces of silk suture are then passed through the lumen of the tracheal ring and are tied around the cartilage, one on each side of the trachealis muscle. The tracheal ring is suspended between a glass hook and a force displacement transducer in a 10 ml organ bath for measurement of isometric tension. Tissues are maintained at 37° C. in aerated ([…] /5% CO2) physiological salt solution of the following composition: […] The tracheal rings are maintained at 2 g resting tension and equilibrated for 45 minutes (with frequence washing and readjustment of resting tension). The tracheal rings are first contracted by the addition of carbachol (3×10^-6 M), to determine tissue responsiveness and establish a reference contraction. On attainment of a stable level of contraction (approximately 30 minutes), the tissues are washed several times until baseline tension has been restored and the re-equilibrated for 30 minutes. The tissues are then incubated for 45 minutes with a test antagonist (either 1×10^-6 M or 1×10^-5 M) or 10 μl of an appropriate solvent control (control, non-treated). One tissue in each group serves as the control. Twenty minutes prior to the construction of the LTD4 cumulative concentration-response curve, L-[…]×10^-2 M final bath concentration) is added to inhibit bioconversion of LTD4 to LTE4. Only one LTD4 concentration-response curve is constructed in each tissue. All responses to LTD4 in an individual tissue are measured as a percentage of the reference contraction of that tissue to carbachol. LTD4 antagonist activity is determined by comparison of the concentration response curves of LTD4 in the presence and absence of antagonist. Assessment of the relative rightward shift of the antagonist treated curve relative to the solvent (control) treated tissue is calculated as a concentration ratio (Eq. A) and used in subsequent calculations to derive an antagonist pKB value (Eqs. B and C). In the vent that the maximum response to LTD4 is depressed, the EC50 for that particular curve is determined, an "apparent" pKB reported, and the compound reported as "not-competitive." [formula] If a compound is found to be active and/or depress the maximal response to LTD4, then a range of concentrations of the test compound should be used generating multiple concentration ratios which would than be used to perform a Schild analysis, and determination of a pA2 value where appropriate.

5-lipoxygenase = molecular target: T2, 5-lipoxygenase (Rattus norvegicus, UniProt P12527); assay: inhibition of 5-HETE synthesis by rat glycogen elicited polymorphonuclear leukocytes; format: cell-based; details: 10 μM, rat PMN, negative = potentiation of 5-HETE synthesis
T2 construct: Peritoneal PMN are obtained from female Wistar rats (150-250 g); endogenous in cells; host or cells: rat glycogen-elicited peritoneal polymorphonuclear leukocytes, intact
T2 sequence (P12527 1-673): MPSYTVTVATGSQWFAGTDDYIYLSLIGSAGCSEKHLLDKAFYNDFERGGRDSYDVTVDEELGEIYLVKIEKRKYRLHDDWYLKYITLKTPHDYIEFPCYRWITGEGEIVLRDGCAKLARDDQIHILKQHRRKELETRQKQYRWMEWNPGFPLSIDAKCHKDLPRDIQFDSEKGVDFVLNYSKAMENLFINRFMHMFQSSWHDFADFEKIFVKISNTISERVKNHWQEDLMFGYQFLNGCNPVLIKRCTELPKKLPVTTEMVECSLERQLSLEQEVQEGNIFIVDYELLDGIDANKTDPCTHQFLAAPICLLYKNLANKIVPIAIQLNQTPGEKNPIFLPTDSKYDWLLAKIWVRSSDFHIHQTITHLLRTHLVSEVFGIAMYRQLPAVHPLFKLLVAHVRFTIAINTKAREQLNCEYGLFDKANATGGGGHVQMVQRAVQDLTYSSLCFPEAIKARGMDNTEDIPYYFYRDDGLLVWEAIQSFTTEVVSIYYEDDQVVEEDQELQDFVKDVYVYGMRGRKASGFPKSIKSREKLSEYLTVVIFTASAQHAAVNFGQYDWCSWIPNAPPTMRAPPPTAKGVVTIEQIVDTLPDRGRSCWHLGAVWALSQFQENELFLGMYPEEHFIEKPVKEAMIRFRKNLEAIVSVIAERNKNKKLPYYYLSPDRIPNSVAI
Method in brief: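 Peritoneal PMN from female Wistar rats given i.p. glycogen 24 h earlier were preincubated with compound for 10 min at 37° C (2×10^7 cells/ml, 10 mM L-cysteine). They were then stimulated 10 min with 10 μM A23187 plus 0.5 μM [14C]arachidonic acid. 5-HETE was separated by TLC and quantified by scintillation.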

Compound | Kb (LTD4) [nM] | inhibition at 10 µM (5-lipoxygenase; read-out: % Inhibition of 5-LO (as 5-HETE)) [%] | % Inhibition of 5-LO (as 5-HETE) (5-lipoxygenase) [%]
C[C@H](C(=O)N(C)O)c1ccc2cc(OCc3ccc4ccccc4n3)ccc2c1 [Example 24, (S)-N-Hydroxy-α-N-dimethyl-6-(2-quinolinylmethoxy)-2-naphthaleneacetamide] | 501 | 100 | 
C[C@H](C(=O)O)c1ccc2cc(OCc3ccc4ccccc4n3)ccc2c1 [Example 17, S-(α)-α-Methyl-6-(2-quinolinylmethoxy)-2-naphthaleneacetic acid, tromethanime salt] | 631 |  | 85
